Measurements as given in ChEMBL document CHEMBL4303122, “Identification of potential treatments for COVID-19 through artificial intelligence-enabled phenomic analysis of human cells infected with SARS-CoV-2” (2020).
“And” between values parts separate entries of the source, which are not always exact repeats. Identical values can stand only once. Counter-ions that a name gives are not always drawn.

Experiments:
SARS-CoV-2 [1] = assay: Antiviral activity against SARS-CoV-2 (USA-WA1/2020 strain) measured by imaging in Vero cells at MOI 0.08 after 48 hrs (reported as hit score from 0-1 for on-disease vs off-disease activity: scores >0.6 considered hits); type: functional, Chlorocebus sabaeus
SARS-CoV-2 [2] = assay: Antiviral activity against SARS-CoV-2 (USA-WA1/2020 strain) measured by imaging in HRCE cells at MOI 0.4 after 96 hrs (reported as hit score from 0-1 for on-disease vs off-disease activity: scores >0.6 considered hits); type: functional; conditions: Homo sapiens

Molecule	Hit score (SARS-CoV-2 [1])	Hit score (SARS-CoV-2 [2])
C=C[C@H]1CN2CC[C@H]1C[C@H]2[C@H](OC(=O)OCC)c1ccnc2ccc(OC)cc12 [QUININE ETHYLCARBONATE]	0.1489	–
C=C[C@H]1CN2CC[C@H]1C[C@H]2[C@H](O)c1ccnc2ccc(OC)cc12 [QUININE]	0.2113	–
NC(=O)c1nc(F)cnc1O	0.1243	–
CC1=CC(=O)C(C(C)C)=CC1=O [THYMOQUINONE]	0.2773	–
OXALIPLATIN	–	0.0878
THIMEROSAL	–	-0.0445
CCN(CCO)CCCC(C)Nc1ccnc2cc(Cl)ccc12.O=S(=O)(O)O (configuration not stated) [HYDROXYCHLOROQUINE SULFATE]	0.5553	–
CC(C)Cn1cnc2c(N)nc3ccccc3c21 [IMIQUIMOD]	0.3174	–
GADODIAMIDE	–	0.193
OC[C@H]1NC[C@H](O)[C@@H](O)[C@H]1O	0.1704	–
COc1ccc2c(c1)c(CC(=O)O)c(C)n2C(=O)c1ccc(Cl)cc1 [INDOMETHACIN]	0.1024	–
CCC(CC)COC(=O)[C@H](C)N[P@](=O)(OC[C@H]1O[C@@](C#N)(c2ccc3c(N)ncnn23)[C@H](O)[C@@H]1O)Oc1ccccc1	0.5934	–
Cc1cccc(C)c1OCC(=O)N[C@@H](Cc1ccccc1)[C@@H](O)C[C@H](Cc1ccccc1)NC(=O)[C@H](C(C)C)N1CCCNC1=O [LOPINAVIR]	0.1843	–
Nc1nc(O)c2ncn(CCC(CO)CO)c2n1 [PENCICLOVIR]	0.1283	–
CC(C)c1nc(CN(C)C(=O)N[C@@H](CCN2CCOCC2)C(=O)N[C@H](CC[C@H](Cc2ccccc2)NC(=O)OCc2cncs2)Cc2ccccc2)cs1 [COBICISTAT]	0.2397	–
CC(C)c1nc(CN(C)C(=O)N[C@H](C(=O)N[C@@H](Cc2ccccc2)C[C@H](O)[C@H](Cc2ccccc2)NC(=O)OCc2cncs2)C(C)C)cs1 [RITONAVIR]	0.1477	–
C1=N/C2=N/c3ccc(OCCN4CCCC4)c(c3)COC/C=C/COCc3cccc(c3)C(=C1)N2 [PACRITINIB]	0.2418	–
C[C@H]1C[C@@H]2[C@H]([C@@H](O)C[C@@]3(C)[C@H]2CC[C@]3(O)C(=O)COC(=O)CCC(=O)[O-])[C@@]2(C)C=CC(=O)C=C12.[Na+] [METHYLPREDNISOLONE SODIUM SUCCINATE]	0.2294	–
stetaderm	–	0.101
CCOC(=O)c1c(CSc2ccccc2)n(C)c2cc(Br)c(O)c(CN(C)C)c12 [UMIFENOVIR]	0.1334	–
O=S(=O)(c1cccc2c(Cl)cccc12)N1CCCNCC1	0.1073	–

Molecule	Hit score (SARS-CoV-2 [1])	Hit score (SARS-CoV-2 [2])
SPIRAMYCIN	–	0.139 and 0.136
NC(=O)c1ncn([C@@H]2O[C@H](CO)[C@@H](O)[C@H]2O)n1 [RIBAVIRIN]	0.1047	–
FLUPENTIXOL	–	0.12
CCOC(=O)[C@H]1O[C@@H]1C(=O)N[C@@H](CC(C)C)C(=O)NCCC(C)C [ALOXISTATIN]	0.4403	–
O=C(CCCN1CCC(O)(c2ccc(Cl)cc2)CC1)c1ccc(F)cc1 [HALOPERIDOL]	0.07542	–
CN(C)C(=O)COC(=O)Cc1ccc(OC(=O)c2ccc(NC(=N)N)cc2)cc1 [CAMOSTAT]	0.2137	–
OC[C@H]1O[C@@H](Oc2cc(O)cc(/C=C/c3ccc(O)cc3)c2)[C@H](O)[C@@H](O)[C@@H]1O [PICEID]	0.06165	–
Eplivanserin hemifumarate	–	-0.0126
N#C[C@@]1(c2ccc3c(N)ncnn23)O[C@H](CO)[C@@H](O)[C@H]1O [GS-441524]	1	–
COC(=O)/C=C/C(=O)OC [DIMETHYL FUMARATE]	0.1078	–
N[C@@H](CCN[C@@H](CCN1CC[C@H]1C(=O)O)C(=O)O)C(=O)O	0.1086	–
CC[C@H](Nc1ncnc2[nH]cnc12)c1nc2cccc(F)c2c(=O)n1-c1ccccc1 [IDELALISIB]	-0.08519	–
hemomex-s	–	0.064
CC[C@H]1OC(=O)[C@@](C)(F)C(=O)[C@H](C)[C@@H](O[C@@H]2O[C@H](C)C[C@H](N(C)C)[C@H]2O)[C@](C)(OC)C[C@@H](C)C(=O)[C@H](C)[C@H]2N(CCCCn3cc(-c4cccc(N)c4)nn3)C(=O)O[C@]12C [SOLITHROMYCIN]	0.6032	–
CCN(CC)CCCC(C)Nc1ccnc2cc(Cl)ccc12 (configuration not stated) [CHLOROQUINE]	0.6704	–
CC(C)CN(C[C@@H](O)[C@H](Cc1ccccc1)NC(=O)O[C@H]1CO[C@H]2OCC[C@H]21)S(=O)(=O)c1ccc(N)cc1	0.153	–
MONOCTANOIN	–	-0.0148
CC(C)OC(=O)OCOP(=O)(CO[C@H](C)Cn1cnc2c(N)ncnc21)OCOC(=O)OC(C)C.O=C(O)/C=C/C(=O)O [TENOFOVIR DISOPROXIL FUMARATE]	0.1962	–
CCC(CC)O[C@@H]1C=C(C(=O)O)C[C@H](N)[C@H]1NC(C)=O [OSELTAMIVIR CARBOXYLATE]	0.1922	–
perchlozone	–	0.0874
CC(C)(C)NC(=O)[C@@H]1CN(Cc2cccnc2)CCN1C[C@@H](O)C[C@@H](Cc1ccccc1)C(=O)N[C@H]1c2ccccc2C[C@H]1O.O	0.2525	–
